Measurements from US20150183834A1 (priority 2005, published 2015).

How the values were obtained:
human PBMC [1] = format: cell-based
human PBMC [2] = format: cell-based; remark: listed apart in the source
Rhesus macaque PBMC [3] = format: cell-based, Rhesus (Macaca mulatta)
[4] = system: human peripheral blood mononuclear cells (PBMCs); format: cell-based
human PBMC [5] = format: cell-based; remark: listed apart in the source
human PBMC [6] = format: cell-based; remark: listed apart in the source
Rhesus macaque PBMC [7] = format: cell-based, Rhesus (Macaca mulatta); remark: listed apart in the source
[8] = system: purified human CD4+ and CD8+ T cells; format: cell-based
Rhesus macaque PBMC [9] = format: cell-based, Rhesus (Macaca mulatta); remark: listed apart in the source
human PBMC [10] = format: cell-based; remark: listed apart in the source
protein kinase C = conditions: cited from earlier work

For ILNRKAIDFLLQRWGGT [SEBOV peptide], which “CD69+CD4+ T cells (in words)” value (human PBMC [1]) is on record?
Its value is “trend toward reduction”.

What about the “percentage of CD69+ CD8+ T cells (in words)” value (human PBMC [1]) of the same sequence?
The value was “significant reduction”.

And the “induction of apoptosis in CD4+ and CD8+ T cells (in words)” value (shortened to “induction of apoptosis”) (human PBMC [2])?
The value was “Effects were similar”.

For ILNRKAIDFLLQRWGGT [ZEBOV peptide], which “T cell activation (in words)” value (Rhesus macaque PBMC [3]) is on record?
Its value is “Decreased”.

And the “depletion of CD4+ T cells and CD8+ T cells (in words)” value (Rhesus macaque PBMC [3])?
Its value is “Significant depletion”.

What about the “mean fluorescent intensity of CD25 expression on CD4+ and CD8+ T cells” value (human PBMC [1]) of the same sequence?
Its value is “decreased”.

And the “mean fluorescent intensity of CD69 expression on CD4+ and CD8+ T cells” value (human PBMC [1])?
The value was “decreased”.

What about the “percentage of CD4+ T cells that are CD25+” value (human PBMC [1]) of the same sequence?
The value was 65.9±11.8%.

What about the “percentage of CD4+ T cells that are CD69+” value (human PBMC [1]) of the same sequence?
Its value is 69.4±3.4%.

What about the “percentage of CD8+ T cells that are CD25+” value (human PBMC [1]) of the same sequence?
Its value is 43.9+9.0%.

What about the “percentage of CD8+ T cells that are CD69+” value (human PBMC [1]) of the same sequence?
Its value is 67.9±9.6%.

What about the “percentages of both CD69+CD4+ T cells and CD69+CD8+ T cells (in words)” value (“percentages” below) (human PBMC [1]) of the same sequence?
Its value is “significant reduction”.

What about the “levels of IL-2” value [4] of the same sequence?
The value was “decreased levels”.

What about the “levels of IL-10” value [4] of the same sequence?
The value was “increased levels”.

What about the “levels of IL-12” value [4] of the same sequence?
The value was “decreased levels”.

And the IL-1β (human PBMC [5])?
Its IL-1β is “dose-dependent reduction”.

And the IL-4 (human PBMC [5])?
The IL-4 was “trend toward decrease”.

What about the IL-6 (human PBMC [5]) of the same sequence?
Its IL-6 is “no pattern”.

What about the IL-10 (human PBMC [5]) of the same sequence?
Its IL-10 is “increase”.

And the MCP-1 (human PBMC [5])?
Its MCP-1 is “dose-dependent reduction”.

And the MIP1-α (human PBMC [5])?
Its MIP1-α is “no effect”.

What about the TNF-α (human PBMC [5]) of the same sequence?
The TNF-α was “dose-dependent reduction”.

And the “anti-CD3/CD28-induced production of IFN-γ” value (human PBMC [5])?
The value was “suppressed”.

What about the “anti-CD3/CD28-induced production of IL-12p40” value (human PBMC [5]) of the same sequence?
Its value is “suppressed”.

And the “production of IL-2” value (human PBMC [5])?
Its value is “suppressed”.

What about the “fold decrease in the number of CD4+ T cells” value (human PBMC [6]) of the same sequence?
Its value is 7.4 fold.

And the “fold decrease in the number of CD8+ T cells” value (human PBMC [6])?
The value was 4.4 fold.

And the “fold reduction in the cell surface expression of CD4” value (human PBMC [6])?
The value was 3.5 fold.

And the “fold reduction in the cell surface expression of CD8” value (human PBMC [6])?
The value was 4.2 fold.

And the “mean fluorescence intensity value for CD4 expression ± SD” value (human PBMC [6])?
Its value is 961±40.

What about the “mean fluorescence intensity value for CD8 expression ± SD” value (human PBMC [6]) of the same sequence?
Its value is 4,025±75.

What about the “number of CD4+ T cells” value (human PBMC [6]) of the same sequence?
Its value is 5.5±1.8 ×10^4.

What about the “number of CD8+ T cells” value (human PBMC [6]) of the same sequence?
The value was 5.8±1.6 ×10^4.

And the “percentage of cells positive for CD4 and CD8” value (“percentage of cells positive” for short) (human PBMC [6])?
The value was “significant decrease”.

What about the “fold increase in apoptotic CD4+ cells” value (human PBMC [2]) of the same sequence?
The value was 3.6 fold.

What about the “fold increase in apoptotic CD8+ cells” value (human PBMC [2]) of the same sequence?
Its value is 2.0 fold.

And the “percentage of Annexin V+ PI- CD4+” value (human PBMC [2])?
The value was 43.6±5.8%.

What about the “percentage of Annexin V+ PI− CD8+” value (human PBMC [2]) of the same sequence?
The value was 29.7±3.7%.

What about the “apoptosis (in words)” value (Rhesus macaque PBMC [7]) of the same sequence?
Its value is “increased”.

What about the “activation and cell death in purified CD4+ or CD8+ T cell population” value [8] of the same sequence?
Its value is “sufficient to induce activation and cell death”.

What about the IFN-γ (Rhesus macaque PBMC [9]) of the same sequence?
The IFN-γ was “significant decrease”.

And the IL1-β (Rhesus macaque PBMC [9])?
The IL1-β was “significant decrease”.

What about the IL-12p40 (Rhesus macaque PBMC [9]) of the same sequence?
The IL-12p40 was “significant decrease”.

What about the “Levels of IL-8” value (Rhesus macaque PBMC [9]) of the same sequence?
The value was “did not alter”.

What about the “Levels of MIP1-α” value (Rhesus macaque PBMC [9]) of the same sequence?
The value was “did not alter”.

And the TNF-α (Rhesus macaque PBMC [9])?
Its TNF-α is “significant decrease”.

What about the “fold decrease in the percentage of cells in the S phase” value (human PBMC [10]) of the same sequence?
The value was 3.5 fold.

And the “fold increase in the number of cells with hypodiploid DNA content” value (human PBMC [10])?
Its value is 8.8 fold.

What about the “percentage of BrdU labeled CD4+ cells” value (human PBMC [10]) of the same sequence?
The value was 3.9±0.6%.

What about the “percentage of BrdU labeled CD8+ cells” value (human PBMC [10]) of the same sequence?
The value was 4.8±1.8%.

What about the “percentage of cells in S phase” value (human PBMC [10]) of the same sequence?
Its value is 8.0±0.5%.

What about the “percentage of cells with hypodiploid DNA” value (human PBMC [10]) of the same sequence?
Its value is 22.0±2.2%.

For LINRHAIDFLLTRWGGT [MARV peptide], which “CD69+CD4+ T cells (in words)” value (human PBMC [1]) is on record?
Its value is “trend toward reduction”.

What about the “percentage of CD69+ CD8+ T cells (in words)” value (human PBMC [1]) of the same sequence?
The value was “significant reduction”.

What about the “percentages” value (human PBMC [1]) of the same sequence?
Its value is “significant reduction”.

What about the “percentage of cells positive” value (human PBMC [6]) of the same sequence?
Its value is “significant decrease”.

What about the “induction of apoptosis” value (human PBMC [2]) of the same sequence?
Its value is “Effects were similar”.

Which “depletion of CD4+ T cells and CD8+ T cells (in words)” value (Rhesus macaque PBMC [3]) does the source give for LLNRKAIDFLLQRWGGT [REBOV peptide] here?
The value was “Significant depletion”.

What about the “fold decrease in the number of CD4+ T cells” value (Rhesus macaque PBMC [3]) of the same sequence?
The value was 4.5 fold.

What about the “fold decrease in the number of CD8+ T cells” value (Rhesus macaque PBMC [3]) of the same sequence?
The value was 4.6 fold.

And the “mean fluorescent intensity of CD69 expression on CD4+ and CD8+ T cells” value (Rhesus macaque PBMC [3])?
Its value is “decreased”.

What about the “number of CD4+ T cells” value (Rhesus macaque PBMC [3]) of the same sequence?
Its value is 4.8±0.7 ×10^4.

And the “number of CD8+ T cells” value (Rhesus macaque PBMC [3])?
The value was 2.3±0.4 ×10^4.

What about the “percentage of CD4+ rhesus T cells that are CD69+” value (Rhesus macaque PBMC [3]) of the same sequence?
The value was 63.6±1.9%.

And the “percentage of CD8+ rhesus T cells that are CD69+” value (Rhesus macaque PBMC [3])?
The value was 60.7±3.1%.

What about the “CD69+CD4+ T cells (in words)” value (human PBMC [1]) of the same sequence?
Its value is “No effect”.

What about the “IL-2R (CD25) expression in CD4+ and CD8+ T cells (in words)” value (human PBMC [1]) of the same sequence?
Its value is “No effect”.

What about the “percentage of CD69+ CD8+ T cells (in words)” value (human PBMC [1]) of the same sequence?
Its value is “No effect”.

What about the “percentages” value (human PBMC [1]) of the same sequence?
Its value is “No effect”.

What about the “cytokine production overall (in words)” value (human PBMC [5]) of the same sequence?
The value was “No effects”.

And the “absolute T cell numbers (in words)” value (human PBMC [6])?
Its value is “no significant depletion”.

And the “expression levels of CD4 and CD8 on PBMC (in words)” value (human PBMC [6])?
The value was “No decrease”.

What about the “percentage of cells positive” value (human PBMC [6]) of the same sequence?
Its value is “not”.

And the “induction of apoptosis” value (human PBMC [2])?
The value was “No significant induction”.

And the “fold increase in apoptotic CD4+ cells” value (Rhesus macaque PBMC [7])?
The value was 3.1 fold.

What about the “fold increase in apoptotic CD8+ cells” value (Rhesus macaque PBMC [7]) of the same sequence?
Its value is 2.6 fold.

What about the “percentage of Annexin V+ P1− CD8+” value (Rhesus macaque PBMC [7]) of the same sequence?
The value was 31.8±3.3%.

And the IFN-γ (Rhesus macaque PBMC [9])?
Its IFN-γ is “significant decrease”.

What about the IL1-β (Rhesus macaque PBMC [9]) of the same sequence?
The IL1-β was “significant decrease”.

And the IL-12p40 (Rhesus macaque PBMC [9])?
The IL-12p40 was “significant decrease”.

And the “Levels of IL-8” value (Rhesus macaque PBMC [9])?
Its value is “did not alter”.

What about the “Levels of MIP1-α” value (Rhesus macaque PBMC [9]) of the same sequence?
Its value is “did not alter”.

And the TNF-α (Rhesus macaque PBMC [9])?
Its TNF-α is “significant decrease”.

What about the “release of IL-2” value (Rhesus macaque PBMC [9]) of the same sequence?
The value was “decreased release”.

What about the “BrdU labeling (in words)” value (human PBMC [10]) of the same sequence?
The value was “No significant change”.

What about the “cycling pattern (in words)” value (human PBMC [10]) of the same sequence?
The value was “No change”.

Which “levels of IL-2” value [4] does the source give for “LQNRRGLDLLFLKEGGL [CKS-17, reference compound]” here?
The value was “decreased levels”.

What about the “levels of IL-10” value [4] of the same sequence?
The value was “increased levels”.

What about the “levels of IL-12” value [4] of the same sequence?
The value was “decreased levels”.

What about the “activity of protein kinase C” value (protein kinase C) of the same sequence?
Its value is “blocks the activity”.
